What was measured:
RENCA cells = experiment: Intratumoral transfer of luciferase plasmid pTG11236 with HPC into RENCA tumors, luciferase measurement; assay type: in vivo; conditions: RENCA tumors in B6D2 mice; 50 μl intratumoral, 0.4, 2 or 10 μg plasmid pTG11236 with 2 mg/ml HPC; 24 hours after last injection; compared with no HPC
Method: (§1) FIG. 1: show the effect of hexadecylphosphocholine (HPC) on intratumoral transfer of the luciferase-plasmid (pTG11236) into RENCA cells. Bars are means of RLU per minute per mg protein. Luciferase activity was measured 24 hours after the last injection of 50 μl of a composition, comprising between 0.4, 2 or 10 μg of plasmid and 2 mg/ml of HPC, into B6D2 mice. Plasmid DNA (pTG11236: CMV promoter, β-globin intron, luciferase cassette, 5739 base pairs) was prepared according to Bischoff et al., Analytical Biochemistry 254 (1997), 69-81. RENCA or P815 cells were injected under the skin of 6 to 8 week old B6D2 female mice (3 10^5 cells/animal). Eleven days after the injection of the cells, palpable tumours appear. Prior to intratumoral injection HPC was mixed with the plasmid DNA preparation Then, various quantities of plasmid and HPC were directly injected into the tumor three times (with three day-time interval between subsequent injection). Twenty four hours after injection of the composition, the mice were killed and the tumors were retrieved and frozen. Luciferase activity was quantified on whole tumor extracts using a conventional measurement kit (Luciferase Assay System, Promega). […] Luciferase activity was expressed as number of RLU emitted per minute, per mg of protein. Protein was measured on 10 μl samples using a VCA Protein Assay kit (Pierce).

P815 cells = experiment: Intratumoral transfer of luciferase plasmid pTG11236 with HPC into P815 tumors, luciferase measurement; assay type: in vivo; conditions: P815 tumors in B6D2 mice; 50 μl intratumoral, 10 μg plasmid pTG11236 with 0.4 mg/ml HPC; 24 hours after last injection; compared with no HPC
Method: as §1, with “FIG. 2:” for “FIG. 1:”, “of HPC” for “of hexadecylphosphocholine (HPC)”, “into P815” for “into RENCA”, “comprising” for “comprising between 0.4, 2 or”, “and 0.4” for “and 2”, “Promega). Briefly, tumors were diluted in 200 μl of reporter lysis buffer (Promega).” for “Promega).”

CCCCCCCCCCCCCCCCOP(=O)([O-])OCC[N+](C)(C)C [HPC, hexadecylphosphocholine]
Luciferase activity of the injected tumors (RLU per minute per mg protein) (RENCA cells): higher | Luciferase activity of the injected tumors (RLU per minute per mg protein) (P815 cells): higher

Reference: patent publication US20050152959A1, “Use of a lysolipid for the preparation of a composition for transfection of a polynucleotide into a cell” (Transgene S. A., priority 2001, published 2005)
